Source: patent US8614222B2, “Methods of preventing and treating low bone mass diseases” (The Trustees of Columbia University in the City of New York, priority 2008, dated 2013)
Entries after “also recorded” stand apart in the source; their conditions may differ.

What was measured:
peripheral serotonin [1] = experiment: Peripheral serotonin levels in wild-type mice (Example 11); format: in vivo; conditions: 5 mice per compound
Description: (§1) Serotonin serum levels were quantified using immunoassay kits from Fitzgerald (Serotonin) and serotonin levels in the different regions of the brain were quantified by HPLC method as described previously (Mann et al., 1992, Arch. Gen. Psychiatry 49:442-446).
The following three compounds were tested for their ability to effect peripheral serotonin levels in wild-type mice:
Also tested as a negative control was vehicle alone. Each compound as well as vehicle was administered to 5 mice and the resulting peripheral serotonin levels were as follows: […]

peripheral serotonin [2] = experiment: Effect of CBMIDA and pCPA on peripheral (serum) serotonin in mice (Example 1); format: in vivo; conditions: for reduction of peripheral (serum) serotonin: 250 mg/kg orally
Description: One month old C57B1/6 inbred male mice, weighing 15-16 g were used in the experiments. Animals were housed under 12 h light/12 h dark conditions in a room with controlled temperature (22° C.) and humidity (60%). Mice had ad libitum access to food and water, and were used after a minimum of 4 days of acclimatization to the housing conditions. All experiments were conducted following Columbia University Guidelines for the Animal Use and Care of laboratory mice.
(§2) Before the experiments, animals were separated into individual cages one day prior to the experiment. Compounds were fed orally (gavage) to the mouse, calculated according to the weight of the mouse, twice a day at 1700 h and at 1100 h. […] This route created two potential barriers for the compound to reach the brain. […] Control animals received the same volume of vehicle. Blood was collected through heart puncture on isofluorane-anaesthesized animals and allowed to clot for 5 minutes on ice. The serum was separated, snap chilled in liquid nitrogen and frozen at −80° C. till analyzed. Brainstems from all the animals were collected and processed for brain serotonin measurement through HPLC.
The Serotonin ELISA kit obtained from the Fitzgerald company was used to measure derivatized serotonin from serum. Derivatization is part of the sample preparation. Serotonin present in the serum was first quantitatively acylated into N-Acylserotonin using the acylation reagent. The principle of the assay is based on competitive ELISA, wherein serotonin that is bound to the solid phase of the plate and the N-acylserotonin compete for the fixed number of antiserum binding sites. When the reaction is in equilibrium, free antigen and free antigen-antiserum complexes are removed by washing.
The antibody bound to the solid phase serotonin is then detected using antirabbit/peroxidase. The substrate TMB/Peroxidase reaction is read at 450 nm. The amount of antibody bound to the solid phase serotonin is inversely proportional to the concentration of serotonin in the sample.
Catechol-3,6-bis methyleneiminodiacetic acid (CBMIDA) (basic structure is an EDTA-like compound and the catechol ring is at the centre) synthesized at the Columbia University Chemistry division, and para-chlorophenylalanine (pCPA) obtained from Sigma Aldrich Corp. were used. Each compound was dissolved with twice molar solution of NaHCO3 in water and given to mouse orally at 250 and 500 mg/kg/dose.

rb 5-HT1B receptors = rb 5-HT1B receptors (Oryctolagus cuniculus, UniProt P49144); conditions: cited from earlier work
rb 5-HT1B receptors, sequence (P49144 whole entry): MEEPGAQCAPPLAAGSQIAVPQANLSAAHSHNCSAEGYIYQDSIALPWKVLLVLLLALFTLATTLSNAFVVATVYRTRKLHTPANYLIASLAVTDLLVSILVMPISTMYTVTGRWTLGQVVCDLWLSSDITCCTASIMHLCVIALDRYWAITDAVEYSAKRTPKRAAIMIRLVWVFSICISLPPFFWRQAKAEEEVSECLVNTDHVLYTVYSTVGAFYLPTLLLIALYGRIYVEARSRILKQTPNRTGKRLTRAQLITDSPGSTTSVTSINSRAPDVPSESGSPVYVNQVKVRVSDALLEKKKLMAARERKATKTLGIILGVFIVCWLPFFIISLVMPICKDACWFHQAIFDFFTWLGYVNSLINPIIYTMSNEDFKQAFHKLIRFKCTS

brain serotonin = experiment: Brain serotonin / blood brain barrier after oral pCPA in mice; format: in vivo; conditions: 250 mg/kg orally
Description: as §2

Lrp5−/− mice = experiment: pCPA treatment of Lrp5−/− and WT mice; format: in vivo
Description: Consistent with the conclusion that the increase in serum serotonin level is responsible fully or partly for the bone phenotype of the Lrp5−/− mice is the discovery that pCPA, a serotonin synthesis inhibitor (Eldridge et al., 1981, Ann. Rev. Physiol. 43:121-135), prevented the appearance of the Lrp5−/− bone phenotype by decreasing serotonin production. WT and Lrp5−/− mice were treated with 300 mg/kg pCPA intraperitoneally three times per week, from 3 weeks to 12 weeks of age (FIG. 7A) and the changes in serum serotonin levels, TPH1 expression in gut and TPH2 expression in brain stem were analyzed. Bone histomorphometry was also performed. […] This rescue of the Lrp5−/− phenotype was achieved by normalization of the gut TPH1 mRNA and of serum serotonin levels (FIGS. 7C and 7D).
Generation of Lrp5−/− (Kato et al., 2002, J. Cell Biol. 157:303-314) β-cateninfloxed/floxed (Glass et al., 2005, Dev. Cell 8:751-764), α1(I)collagen-cre transgenic (Dacquin et al., 2002, Dev. Dyn. 224:245-251) and Htt−/− (Ansorge et al., 2008, J. Neurosci. 28:199-207) mice were as described previously. Lrp5+/−;Htt+/− double heterozygous mice were generated by crossing Lrp5+/− and Htt+/− mice. Three week-old Wt or Lrp5−/− mice were administered pCPA on alternate days for 9 weeks by i.p. All animal protocols were approved by the Animal Care Committees of Columbia University.
Static histomorphometry measurements were performed as previously described in accordance with standard nomenclature, using the Osteomeasure Analysis System (Osteometrics, Inc) (Ducy et al., 2000, Cell 100:197-207). Four to 9 animals were assigned per group.
as §1

CREB = CREB phosphorylation (Western blot) and CREB binding to Cyclin D1 promoter (ChIP) in primary osteoblasts; format: cell-based, mouse
Description: (§3) Osteoblasts were treated in serum-free medium with vehicle or Serotonin (50 to 100 μM, Sigma) for 24 hr. Total RNA were extracted with Trizol (Invitrogen). cDNA were generated using the ABI Reverse transcriptase system and random hexanucleotide primers. Real-time PCR was performed using superarray primers on a Stratagene real time PCR cycler and Actin expression was used as endogenous control. Chromatin immunoprecipitation assays (ChIP) were performed by standard procedures using primary osteoblasts. Microarray analysis was performed as described previously (Glass et al., 2005, Dev. Cell 8:751-764).
Osteoblasts were treated in serum-free medium with vehicle or Serotonin (50 to 100 μM, Sigma) for 24 hr. Lysates from primary osteoblasts or crushed frozen bones were prepared in RIPA buffer in the presence of protease and phosphatase inhibitors. Twenty to 60 μg of proteins were separated by SDS-PAGE in reducing conditions and transferred on nitrocellulose membrane using standard protocols. Membranes were incubated with primary antibodies including total or anti-Phospho CREB (Cell Signaling Technology).

primary osteoblasts = experiment: Real-time PCR of gene expression in primary osteoblasts treated with serotonin; format: cell-based, mouse; conditions: serotonin 50 to 100 μM, 24 hr
Description: Calvaria osteoblasts were extracted by triple collagenase/trypsine digestion from 4 day-old CD1 pups and differentiated with ascorbic acid as previously described (Duey et al., 2000, Cell 100:197-207).
as §3

ovariectomized rats = experiment: Curative regimen in ovariectomized rats (histomorphometry, μCT, biomechanical testing); format: in vivo; conditions: OVX rats
Description: Virgin female Sprague-Dawley rats (National Institute of Nutrition, Hyderabad, India) were obtained at 3 months of age and allowed to acclimate to the facility for 1 week before study initiation and surgical procedures. They were housed under a 12 hour:12 hour light:dark cycle and provided throughout the study with water and PMI (Purina Mills, Incorporated) Certified Rodent Laboratory Chow. Rats were subjected to either bilateral ovariectomy or a sham operation under isoflurane anesthesia. […] The rats were divided into two groups of sham-operated and ovariectomized animals and left untreated for 3 weeks to allow bone loss to occur. One group of sham and one group of ovariectomized rats (n=10/group) were killed as baseline controls to determine bone loss before the start of LP-533,401 or PTH administration. The remaining animals (n=5-10/group) received vehicle or LP-533,401 (250 mg/kg/day) by gavage, or recombinant human PTH (80 ug/kg) by daily subcutaneous (s.c.) injection for 4 weeks. The 80 ug/kg dose of PTH was selected as being optimal for reversal of ovariectomy-induced bone loss in rats based on previous studies, while the dose of LP-533,401 was selected based on the effective dose for bone loss-reversal observed in mice experiments. To label bone-forming surfaces, animals were injected s.c. with calcein (8 mg/kg) at 10 and 3 days before death. Animals were killed by an overdose of Isofluorane anesthesia. The right tibia and lumbar vertebra 2 (L2) were collected, cleaned of excess soft tissue, fixed overnight in 10% formalin and processed for μCT or histomorphometric analysis. The right femur and L3 were cleaned of excess tissue and stored at −20° C. prior to biomechanical testing.
Bone histomorphometry was performed as previously described (Duey et al., 2000, Cell 100:197-207; Takeda et al., 2002, Cell 111:305-317; Parfitt et al., 1987, J. Bone Miner. Res. 2:595-610). Briefly, lumbar vertebrae were dissected, fixed for 24 hr in 10% formalin, dehydrated in graded ethanol series, and embedded in methyl methacrylate resin according to standard protocols (Parfitt et al., 1987, J. Bone Miner. Res. 2:595-610). Von Kossa/Von Gieson staining was performed using 7 μm sections for bone volume over tissue volume (BV/TV) measurement. Bone formation rate (BFR) was analyzed by the calcein double-labeling method (Ducy et al., 2000, Cell 100:197-207). Calcein (Sigma Chemical Co., St. Louis, Mo.) was dissolved in calcein buffer (0.15 M NaCl, 2% NaHCO3) and injected twice at 0.125 mg/g body weight on day 1 and 4, and then mice were killed on day 6. Unstained 4 μm sections were used for bone formation rate (BFR) measurements. For the analysis of parameters of osteoblasts and osteoclasts, 4 μm sections were stained with toluidine blue and tartrate-resistant acid phosphatase (TRAP), respectively (2). Histomorphometric analyses were performed using the Osteomeasure Analysis System (Osteometrics, Atlanta, Ga.).
Trabecular bone architecture of proximal tibia was assessed using a micro computed tomography (μCT) system (VivaCT 40, SCANCO Medical AG, Bassersdorf, Switzerland). Tibia bone specimen was stabilized with gauze in a 2 ml centrifuge tube filled with 70% ethanol and fastened in the specimen holder of the μCT scanner. One hundred μCT slices, corresponding to a 1.05 mm region distal from the growth plate, were acquired at an isotropic spatial resolution of 10.5 μm. A global thresholding technique was applied to binarize gray-scale μCT images where the minimum between the bone and bone marrow peaks in the voxel gray value histogram was chosen as the threshold value. The trabecular bone compartment was segmented by a semi-automatic contouring method and subjected to a model-independent morphological analysis (Hildebrand et al., 1999, J. Bone Miner. Res. 14:1167-1174) by the standard software provided by the manufacture of the μCT scanner. […]

[3] = 300 mg/kg i.p. three times per week, 3 to 12 weeks of age
[4] = LP-533,401 250 mg/kg/day, PTH 80 μg/kg/day

Nc1nc(OC(c2ccc(-c3cccc(F)c3)cc2)C(F)(F)F)cc(-c2ccc(OC[C@H](N)C(=O)O)cc2)n1 (stereo partly drawn) [(2S)-2-amino-3-(4-(2-amino-6-(2,2,2-trifluoro-1-(3′-fluorobiphenyl-4-yl)ethoxy)pyrimidin-4-yl)phenoxy)propanoic acid]
Peripheral serotonin (ng/ml) (mean ± SEM) (peripheral serotonin [1]): 93.77 ± 12.15 ng/mL

O=C(O)CN(CC(=O)O)Cc1ccc(CN(CC(=O)O)CC(=O)O)c(O)c1O [CBMIDA, Catechol-3,6-bis methyleneiminodiacetic acid]
reduction of peripheral (serum) serotonin (peripheral serotonin [2]; 4 week old mice): ~45%
reduction of peripheral serotonin (peripheral serotonin [2]; 4 week old mice, 500 mg/kg orally twice in 20 hours): about 80%
serotonin serum levels, decrease below normal (peripheral serotonin [2]; mice, 500 mg/kg orally twice daily): 80 % below normal
peripheral serotonin (peripheral serotonin [2]; oral feeding (FIG. 11)): reduces

COC(=O)C(=O)Nc1ccc(-c2cc(OC(c3ccc(-c4cccc(F)c4)cc3)C(F)(F)F)nc(N)n2)cc1 (stereo not shown) [Methyl 2-(4-(2-amino-6-(2,2,2-trifluoro-1-(3′-fluorobiphenyl-4-yl)ethoxy)pyrimidin-4-yl)phenylamino)-2-oxoacetate]
Peripheral serotonin (ng/ml) (mean ± SEM) (peripheral serotonin [1]): 23.76 ± 8.25 ng/mL

O=C(c1ccc(F)cc1)C1CCN(CCn2c(=O)[nH]c3ccccc3c2=O)CC1 [ketanserin]
behaviour at rb 5-HT1B receptors (rb 5-HT1B receptors): as silent, competitive antagonists

CSc1ccc2c(c1)C(N1CCN(C)CC1)Cc1ccccc1S2 (stereo not shown) [methiothepin]
behaviour at rb 5-HT1B receptors (rb 5-HT1B receptors): as silent, competitive antagonists

NC(Cc1ccc(Cl)cc1)C(=O)O (stereo not shown) [pCPA, para-chlorophenylalanine]
reduction of peripheral (serum) serotonin (peripheral serotonin [2]; 4 week old mice): ~50%
serum serotonin levels, decrease below normal range (peripheral serotonin [2]; mice, oral, control inhibitor): > 60 % below normal range
crossing of the blood brain barrier (brain serotonin): did not cross the blood brain barrier
serotonin in the brain (brain serotonin): did not decrease
bone abnormalities (low bone phenotype) of Lrp5−/− mice (Lrp5−/− mice; [3]): corrected
bone mass in WT mice (Lrp5−/− mice; [3]): without overtly affecting
gut TPH1 mRNA (Lrp5−/− mice; Lrp5−/− mice, 300 mg/kg i.p.): normalization
serum serotonin levels (Lrp5−/− mice; Lrp5−/− mice, 300 mg/kg i.p., 300 mg/kg): normalizes; also recorded: normalization
Brain TPH2 mRNA levels (Lrp5−/− mice; treated mice, 300 mg/kg i.p.): not affected

NCCc1c[nH]c2ccc(O)cc12 [serotonin, 5-hydroxytryptamine]
CREB phosphorylation (CREB): significantly decreased
binding of CREB to the Cyclin D1 promoter (ChIP) (CREB): decreased
expression of Cyclin D1 (primary osteoblasts): decreased
expression of Cyclin D2 (primary osteoblasts): decreased
expression of Osteocalcin (primary osteoblasts): not modified
expression of Runx2 (primary osteoblasts): not modified
expression of Type I collagen (primary osteoblasts): not modified

B1: PTH: recombinant human PTH, intermittent s.c. injections, standard to which bone anabolic agents are compared (protein, UniProt P01270 32-115, looked up)
Parathyroid hormone: SVSEIQLMHNLGKHLNSMERVEWLRKKLQDVHNFVALGAPLAPRDAGSQRPRKKEDNVLVESHEKSLGEADKADVNVLTKAKSQ
modifications: Parathyroid hormone
notes: recombinant human PTH, intermittent s.c. injections, standard to which bone anabolic agents are compared
number of osteoclasts per bone surface (OcS/BS) versus untreated ovariectomized rats (ovariectomized rats): similar
decrease in cortical thickness at the femur mid-shaft (ovariectomized rats; [4]): equally rescued
maximal load (femur, vertebra) (ovariectomized rats; [4]): restored to values seen in sham-operated rats
stiffness (femur, vertebra) (ovariectomized rats; [4]): restored to values seen in sham-operated rats
